The term EC50 denotes the concentration giving half of the maximal effect. A low value points to higher potency in that assay. One may read the IC50 as the concentration needed to halve the response being measured. What is called half-life is the time in which the quantity being followed falls by half.

One data set concerns NG108-cl cells. In words: Clomeleon assay of [Cl−]i in NG108-cl cells. It is filed as cell-based.
A further data set concerns PNI rats. In words: Paw withdrawal threshold. It is filed as in vivo, rat.
Data set [1] is described as follows: Pharmacokinetic analysis in rats. It is filed as in vivo. As to conditions: rat.
A further data set has as its system rats. The experiment in a line: Accelerating rotorod assay. It is filed as in vivo, rat. Particulars: equipotent oral doses, 2 h post-dose. A general note: In the rotarod test animals must keep their balance on a rotating rod.
The next data set addresses hERG channel (Homo sapiens, UniProt Q12809). In words: hERG inhibition of tail current, automated patch-clamp. It is filed as cell-based. On the technique in general: The hERG channel carries a current that helps repolarise heart muscle cells.
In another data set the test system is HEK293-cl cells. The experiment in a line: Clomeleon assay of [Cl−]i in HEK293-cl cells. It is filed as cell-based, Human. Particulars: HEK293-cl cells (no KCC2; express NKCC1, KCC1, KCC3, KCC4).
The target in data set [2] is T1, KCC2 (Rattus norvegicus, UniProt Q63633).
T1 sequence (Q63633 1-1116 isoform Q63633-2): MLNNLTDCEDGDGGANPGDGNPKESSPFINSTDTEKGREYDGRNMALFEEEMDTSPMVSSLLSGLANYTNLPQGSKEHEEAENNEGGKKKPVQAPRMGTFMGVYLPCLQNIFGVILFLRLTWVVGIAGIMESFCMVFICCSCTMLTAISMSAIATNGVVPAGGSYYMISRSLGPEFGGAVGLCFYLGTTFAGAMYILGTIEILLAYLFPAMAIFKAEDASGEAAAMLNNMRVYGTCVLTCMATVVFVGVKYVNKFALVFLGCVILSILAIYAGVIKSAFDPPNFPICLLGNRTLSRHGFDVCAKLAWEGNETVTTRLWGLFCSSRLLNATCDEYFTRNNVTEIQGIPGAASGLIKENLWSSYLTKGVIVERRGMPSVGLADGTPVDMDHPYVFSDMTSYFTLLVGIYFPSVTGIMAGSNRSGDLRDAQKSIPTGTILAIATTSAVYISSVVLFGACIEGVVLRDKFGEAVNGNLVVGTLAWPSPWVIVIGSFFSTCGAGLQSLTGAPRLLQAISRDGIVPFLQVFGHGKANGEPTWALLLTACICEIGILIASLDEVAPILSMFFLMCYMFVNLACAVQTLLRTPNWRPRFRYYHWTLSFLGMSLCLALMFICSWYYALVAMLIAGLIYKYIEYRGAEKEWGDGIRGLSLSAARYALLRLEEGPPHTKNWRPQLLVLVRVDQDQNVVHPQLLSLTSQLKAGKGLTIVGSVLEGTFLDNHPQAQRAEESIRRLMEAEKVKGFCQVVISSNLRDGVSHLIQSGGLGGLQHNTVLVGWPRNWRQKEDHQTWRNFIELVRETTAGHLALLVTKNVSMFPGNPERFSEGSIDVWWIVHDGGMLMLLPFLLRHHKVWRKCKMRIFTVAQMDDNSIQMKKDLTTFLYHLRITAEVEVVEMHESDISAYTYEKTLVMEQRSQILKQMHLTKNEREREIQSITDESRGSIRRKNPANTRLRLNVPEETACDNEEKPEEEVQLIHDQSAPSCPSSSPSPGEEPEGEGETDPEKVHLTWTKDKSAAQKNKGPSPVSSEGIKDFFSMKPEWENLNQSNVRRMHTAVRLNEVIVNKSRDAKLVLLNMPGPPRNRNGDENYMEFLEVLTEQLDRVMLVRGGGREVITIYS
The experiment in a line: Imaging of K+-driven Cl− transport. As to conditions: for increase of the rate of Cl− accumulation: 25 μM, 15 mM KCl. Type of data set: cell-based.

In data set [3] the target is T1, KCC2. The experiment in a line: Cell surface biotinylation and immunoblot of KCC2 in BDNF-treated spinal slices. Type of data set: cell-based. Particulars: 100 μM, BDNF-pretreated slices.
The test system of the next data set is GABAA receptor. The experiment in a line: Evoked GABAA currents in SDH neurons with VU0240551. It is filed as cell-based, rat. Particulars: acute application, 25 and 100 μM, in the presence of VU0240551.
The target of data set [4] is T2, KCC2 (Homo sapiens, UniProt Q9H2X9).
T2 sequence (Q9H2X9 1-1139): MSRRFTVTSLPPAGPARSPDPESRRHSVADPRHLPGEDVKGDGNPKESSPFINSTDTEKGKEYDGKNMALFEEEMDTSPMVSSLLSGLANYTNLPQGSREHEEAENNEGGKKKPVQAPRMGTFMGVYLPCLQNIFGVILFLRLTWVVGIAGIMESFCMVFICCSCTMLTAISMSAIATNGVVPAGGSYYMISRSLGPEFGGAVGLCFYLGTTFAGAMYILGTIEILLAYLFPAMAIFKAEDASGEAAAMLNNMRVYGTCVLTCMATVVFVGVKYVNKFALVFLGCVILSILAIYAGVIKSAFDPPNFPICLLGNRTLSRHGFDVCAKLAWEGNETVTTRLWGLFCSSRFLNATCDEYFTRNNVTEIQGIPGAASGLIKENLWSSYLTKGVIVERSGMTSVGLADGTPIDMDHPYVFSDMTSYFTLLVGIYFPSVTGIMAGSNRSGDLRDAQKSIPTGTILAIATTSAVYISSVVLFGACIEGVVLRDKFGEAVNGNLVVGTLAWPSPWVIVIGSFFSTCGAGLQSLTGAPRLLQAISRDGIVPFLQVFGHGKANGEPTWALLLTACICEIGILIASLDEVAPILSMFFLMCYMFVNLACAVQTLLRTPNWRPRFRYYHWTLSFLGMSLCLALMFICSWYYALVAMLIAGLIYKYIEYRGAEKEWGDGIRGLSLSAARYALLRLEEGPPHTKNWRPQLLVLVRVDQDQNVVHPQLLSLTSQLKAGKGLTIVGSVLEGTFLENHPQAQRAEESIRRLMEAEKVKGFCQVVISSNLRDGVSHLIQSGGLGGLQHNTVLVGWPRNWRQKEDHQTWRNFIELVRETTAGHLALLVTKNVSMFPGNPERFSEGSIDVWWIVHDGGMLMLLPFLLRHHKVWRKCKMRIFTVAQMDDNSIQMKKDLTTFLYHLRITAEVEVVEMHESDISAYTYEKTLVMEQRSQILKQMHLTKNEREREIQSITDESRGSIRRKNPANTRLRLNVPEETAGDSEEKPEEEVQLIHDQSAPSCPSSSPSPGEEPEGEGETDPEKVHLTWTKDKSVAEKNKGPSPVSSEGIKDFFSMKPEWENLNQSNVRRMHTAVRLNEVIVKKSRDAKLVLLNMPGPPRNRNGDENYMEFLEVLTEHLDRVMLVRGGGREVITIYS
The experiment in a line: Rb+ flux assay in X. laevis oocytes expressing KCC2. As to conditions: 200 nM pre-incubation, 45 min Rb+ influx, vs vehicle. Type of data set: cell-based.

The subject of a further data set is other CCCs. The experiment in a line: Rb+ flux assay in X. laevis oocytes expressing other CCCs. Type of data set: cell-based. As to conditions: 200 nM pre-incubation.
The next data set can be described thus: Metabolite analyses. Type of data set: in vivo. As to conditions: not shown.
Data set [5] relates to superficial dorsal horn (SDH) neurons. In words: Whole-cell recording of EGABA under Cl− load in superficial dorsal horn neurons. Type of data set: cell-based, rat. As to conditions: 25 μM, BDNF-treated and PNI slices.
The test system of the next data set is rat hepatoma H4IIE cells. In words: Caspase-3 activation in H4IIE cells. Particulars: 24-h exposure, up to 300 μM. Type of data set: cell-based.
The test system of data set [6] is superficial dorsal horn field responses. Type of data set: in vivo, rat. As to conditions: local spinal 100 μM.
In data set [7] the test system is 55 radioligand-receptor interactions. In words: Radioligand competition binding screen, whole panel. Particulars: 10 μM CLP257, 55 interactions. Background: Displacement assays read how much labelled ligand stays bound in the presence of the test substance.
Data set [8] has as its target recombinant α1β2γ2 GABAA receptors (Homo sapiens, UniProt P14867+P18507+P47870). In words: GABAA receptor automated whole cell patch-clamp in CHO cells. As to conditions: 50 μM CLP257, CHO cells. It is filed as cell-based.
[9] abbreviates: 5 h, [Cl−]i reduction, clomeleon assay, 5 h exposure.
The mark [10] stands for this setting: [Cl−]i reduction, clomeleon assay, 5 h exposure.

Chain of hERG channel (Q12809 whole entry): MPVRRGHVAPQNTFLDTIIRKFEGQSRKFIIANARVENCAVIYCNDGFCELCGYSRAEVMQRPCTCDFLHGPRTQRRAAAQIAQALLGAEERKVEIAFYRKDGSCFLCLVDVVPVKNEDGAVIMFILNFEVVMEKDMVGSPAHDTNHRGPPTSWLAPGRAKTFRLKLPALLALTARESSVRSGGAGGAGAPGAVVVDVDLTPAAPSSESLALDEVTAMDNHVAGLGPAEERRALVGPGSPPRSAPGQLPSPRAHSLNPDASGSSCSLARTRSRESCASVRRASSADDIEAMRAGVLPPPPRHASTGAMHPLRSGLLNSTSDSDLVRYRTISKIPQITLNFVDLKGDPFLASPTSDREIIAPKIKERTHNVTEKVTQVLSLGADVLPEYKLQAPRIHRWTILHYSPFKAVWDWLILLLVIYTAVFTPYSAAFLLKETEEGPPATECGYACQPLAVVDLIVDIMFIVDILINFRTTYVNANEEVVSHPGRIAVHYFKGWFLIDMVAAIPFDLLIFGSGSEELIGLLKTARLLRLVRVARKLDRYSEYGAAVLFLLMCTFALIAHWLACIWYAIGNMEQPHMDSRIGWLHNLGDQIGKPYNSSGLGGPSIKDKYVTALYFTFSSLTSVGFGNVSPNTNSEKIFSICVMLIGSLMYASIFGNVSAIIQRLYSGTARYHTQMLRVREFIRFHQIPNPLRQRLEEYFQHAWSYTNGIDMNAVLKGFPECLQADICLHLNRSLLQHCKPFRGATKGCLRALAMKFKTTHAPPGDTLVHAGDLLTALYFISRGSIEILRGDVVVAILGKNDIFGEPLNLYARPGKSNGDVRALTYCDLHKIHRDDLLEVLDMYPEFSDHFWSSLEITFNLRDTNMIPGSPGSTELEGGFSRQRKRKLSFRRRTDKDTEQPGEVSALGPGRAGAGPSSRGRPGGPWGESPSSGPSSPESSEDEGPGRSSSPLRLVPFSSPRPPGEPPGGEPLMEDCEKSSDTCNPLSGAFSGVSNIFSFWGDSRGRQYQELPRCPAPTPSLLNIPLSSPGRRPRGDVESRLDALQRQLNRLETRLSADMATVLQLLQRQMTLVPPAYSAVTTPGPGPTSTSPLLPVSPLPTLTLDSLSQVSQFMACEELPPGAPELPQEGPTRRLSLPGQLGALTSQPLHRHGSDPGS
Chain of recombinant α1β2γ2 GABAA receptors (P14867 28-456): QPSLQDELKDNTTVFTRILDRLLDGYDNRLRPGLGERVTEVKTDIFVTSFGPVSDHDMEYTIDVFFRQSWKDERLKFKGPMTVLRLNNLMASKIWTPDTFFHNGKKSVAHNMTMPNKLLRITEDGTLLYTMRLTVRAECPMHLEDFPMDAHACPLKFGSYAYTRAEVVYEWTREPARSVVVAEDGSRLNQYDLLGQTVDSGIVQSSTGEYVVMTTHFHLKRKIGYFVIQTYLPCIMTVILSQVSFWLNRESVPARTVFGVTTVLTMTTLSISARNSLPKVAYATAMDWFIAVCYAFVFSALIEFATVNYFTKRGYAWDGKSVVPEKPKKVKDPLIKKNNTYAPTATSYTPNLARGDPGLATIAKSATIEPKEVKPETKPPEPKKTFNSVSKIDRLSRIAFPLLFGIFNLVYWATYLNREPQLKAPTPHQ
Chain of recombinant α1β2γ2 GABAA receptors (P47870 25-512 limits assumed): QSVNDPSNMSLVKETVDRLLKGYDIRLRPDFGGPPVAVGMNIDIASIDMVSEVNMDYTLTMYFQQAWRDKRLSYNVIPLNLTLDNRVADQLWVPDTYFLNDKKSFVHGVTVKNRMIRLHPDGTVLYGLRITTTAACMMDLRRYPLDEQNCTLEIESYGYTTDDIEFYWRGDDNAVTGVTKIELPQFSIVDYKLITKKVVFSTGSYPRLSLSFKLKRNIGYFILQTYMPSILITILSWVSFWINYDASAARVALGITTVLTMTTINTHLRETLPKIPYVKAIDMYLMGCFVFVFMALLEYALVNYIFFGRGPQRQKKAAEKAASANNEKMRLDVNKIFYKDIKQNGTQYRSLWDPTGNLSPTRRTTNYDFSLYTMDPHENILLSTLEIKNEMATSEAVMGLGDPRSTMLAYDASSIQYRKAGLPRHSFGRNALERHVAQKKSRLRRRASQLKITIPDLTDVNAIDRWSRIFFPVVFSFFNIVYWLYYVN
Chain of recombinant α1β2γ2 GABAA receptors (P18507 40-475): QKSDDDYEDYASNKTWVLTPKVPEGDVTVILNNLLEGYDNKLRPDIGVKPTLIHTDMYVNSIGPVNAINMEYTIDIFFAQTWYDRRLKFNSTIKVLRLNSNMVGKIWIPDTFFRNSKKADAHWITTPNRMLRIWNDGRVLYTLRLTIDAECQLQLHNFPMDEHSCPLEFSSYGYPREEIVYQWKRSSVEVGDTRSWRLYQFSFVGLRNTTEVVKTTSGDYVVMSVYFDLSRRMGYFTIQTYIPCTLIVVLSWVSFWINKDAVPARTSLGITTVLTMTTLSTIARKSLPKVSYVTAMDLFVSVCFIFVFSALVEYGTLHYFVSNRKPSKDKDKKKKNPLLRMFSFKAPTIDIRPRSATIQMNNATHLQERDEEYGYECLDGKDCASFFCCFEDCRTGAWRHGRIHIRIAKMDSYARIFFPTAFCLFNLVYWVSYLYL

As to `Oc1cc(F)ccc1/C=C1\SC(N2CCCCN2)=NC1=S` [CLP355, (5Z)-2-(1,2-diazinan-1-yl)-5-[(4-fluoro-2-hydroxyphenyl)methylidene]-4,5-dihydro-1,3-thiazole-4-thione], in the data set with NG108-cl cells (setting [9]), the EC50 is 0.05 µM.

Molecule `O=C1N=C(N2CCCCC2)S/C1=C\c1ccccc1O` [CL-058, (5Z)-5-[(2-hydroxyphenyl)methylidene]-2-(piperidin-1-yl)-4,5-dihydro-1,3-thiazol-4-one] gave an EC50 in the data set with NG108-cl cells (setting [10]) of 31.5 µM. In other words, the double-digit micromolar range.

In the case of `Cc1csc(NC(=O)CSc2ccc(-c3ccccc3)nn2)n1` [VU0240551, reference compound], the “antagonism of the [Cl−]i response to CLP257” value in the data set with NG108-cl cells (CLP257 500 nM, 5 h exposure) is reported as “dose-dependent antagonism”.

Regarding `O=C1N=C(N2CCCCN2)S/C1=C\c1ccc(F)cc1OC(=O)N1CCCC1` [CLP290, 2-{[(5Z)-2-(1,2-diazinan-1-yl)-4-oxo-4,5-dihydro-1,3-thiazol-5-ylidene]methyl}-5-fluorophenyl pyrrolidine-1-carboxylate], in the data set on PNI rats (PO, 100 mg kg^−1 vs Pregabalin 30 mg kg^−1), the “maximal oral analgesic efficacy” value is on record as “equivalent to that of Pregabalin”. Also, the “maximal plasma concentration and exposure of CLP257 vs native CLP257” value in [1] (analyte CLP257 after CLP290) is “improved maximal plasma concentration and exposure”. Also, in the data set with rats, the “motor function on accelerating rotorod” value was “no effect”. The same molecule registered an IC50 against hERG channel of 224 µM.

As to `O=C1N=C(N2CCCCN2)S/C1=C\c1ccc(F)cc1O` [CLP257, (5Z)-2-(1,2-diazinan-1-yl)-5-[(4-fluoro-2-hydroxyphenyl)methylidene]-4,5-dihydro-1,3-thiazol-4-one], in the data set with HEK293-cl cells, the “change in [Cl−]i” value is recorded as “no change”. Also, the “maximal analgesic effect compared with Gabapentin” value with PNI rats (IP) is “much weaker than that of Gabapentin”. The mechanical withdrawal thresholds result in the data set on PNI rats (IP, peaking at 100 mg kg^−1, 2 h post-injection) is “increased withdrawal thresholds”. In addition, the “increase of the rate of Cl− accumulation” value worked out at 26% at KCC2 [2] (BDNF-treated spinal slices) and 45% on KCC2 [2] (PNI spinal slices). On KCC2 [2] (100 μM, BDNF-treated slices), the “Cl− transport” value was “completely restored Cl^− transport to control levels”. The “cell surface expression of KCC2 monomers and dimers” value on KCC2 [3] is on record as “increased”. Also, the “total KCC2 expression” value at KCC2 [3] is “not significantly affected”. The half-life in data set [1] (male, Sprague-Dawley, plasma) is less than 15 min. Further, the “effect on evoked GABAA currents” value in the data set with GABAA receptor was “no effect”. Moreover, at KCC2 [4], the “increase of KCC2 transport activity (Rb+ influx)” value is listed as 61%. Further, the “change of transport activity (Rb+ influx) in other CCCs” value in the data set on other CCCs was “no change”. Besides, the “metabolism of the hydroxyl moiety” value in the data set “Metabolite analyses” is reported as “rapidly undergoes glucuronidation”. Also, in [5], the “EGABA (reversal potential for GABAA currents)” value was “hyperpolarized”. Further, the Caspase-3 activation result in the data set with rat hepatoma H4IIE cells is listed as “not detected”. Further, the evoked field responses entry in [6] (animals with nerve injury (PNI)) is “renormalized”. In addition, in data set [6] (naïve animals, 2.5 to 135 g (mm^2)^−1), the “effect on the stimulus-response relationship of evoked field responses” value was “no effect”. Further, it took 0.616 µM to reach a half-maximal effect in the data set with NG108-cl cells (setting [9]) (EC50). In addition, the “Maximal [Cl−]i reduction” value in the data set with NG108-cl cells (NG108-cl cells) is reported as ~ 40%. Further, in the data set with NG108-cl cells (at maximal effect), the “drop from resting [Cl−]i of 57 mM” value amounted to 23 mM. Besides, the “inhibition of radioligand-receptor interactions, maximum over the panel” value in [7] is not above 30%. In addition, in data set [8], the “agonist effect relative to the effect of 5 μM muscimol” value is less than 0.2%. Further, the IC50 against hERG channel is 449 µM.

For `O=C1N=C(N2CCCCN2)S/C1=C\c1ccc(F)cc1OC1OC(C(=O)O)C(O)C(O)C1O` (centres unmarked) [CLP386, 6-(2-{[(5Z)-2-(1,2-diazinan-1-yl)-4-oxo-4,5-dihydro-1,3-thiazol-5-ylidene]methyl}-5-fluorophenoxy)-3,4,5-trihydroxyoxane-2-carboxylic acid], the “EC50 (μM)” value in the data set on NG108-cl cells (setting [10]) was “inactive”.

In the case of `CC(C)C[C@H](CN)CC(=O)O` [Pregabalin, reference compound], the “motor function on accelerating rotorod” value with rats is on record as “depressed motor function”.

For the origin of these results see article PMC4005788 (Nature medicine, 2013).
